Target: T1, Tyrosine-protein phosphatase non-receptor type 11 (Homo sapiens, UniProt Q06124)
T1 sequence (Q06124 whole entry): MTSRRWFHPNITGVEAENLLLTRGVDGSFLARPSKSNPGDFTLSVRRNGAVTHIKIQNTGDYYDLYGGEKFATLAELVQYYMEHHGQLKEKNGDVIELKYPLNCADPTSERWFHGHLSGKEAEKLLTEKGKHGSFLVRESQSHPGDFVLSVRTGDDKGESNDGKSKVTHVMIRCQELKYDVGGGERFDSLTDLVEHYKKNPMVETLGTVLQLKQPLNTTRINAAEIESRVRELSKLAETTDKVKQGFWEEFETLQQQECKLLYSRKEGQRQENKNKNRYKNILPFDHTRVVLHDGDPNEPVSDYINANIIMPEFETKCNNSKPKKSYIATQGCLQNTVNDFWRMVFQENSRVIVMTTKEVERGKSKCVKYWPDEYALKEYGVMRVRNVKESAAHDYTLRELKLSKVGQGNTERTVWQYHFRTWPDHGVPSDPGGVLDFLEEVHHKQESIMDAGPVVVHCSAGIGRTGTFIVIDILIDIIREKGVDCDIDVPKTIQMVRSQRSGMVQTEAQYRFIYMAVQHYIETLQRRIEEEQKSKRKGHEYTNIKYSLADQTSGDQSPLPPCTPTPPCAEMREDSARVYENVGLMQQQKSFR
Test: SHP2 Allosteric Inhibition Assay
Procedure: The phosphatase reaction was conducted in 384-well black polystyrene plates (Corning, Cat #3575) with flat bottom, low edge and non-binding surface at room temperature and 25 μl final volume of the following buffer condition: 60 mM HEPES, pH 7.2, 75 mM NaCl, 75 mM KCl, 1 mM EDTA, 0.05% P-20, 5 mM DTT.The following experiments were conducted to monitor the SHP2 inhibition by the compounds (at concentrations of 0.0003-100 μM) in this invention:Wherein, incubate 0.5 nM SHP2 with 0.5 μM peptide IRS1_pY1172 (dPEG8) pY1222 (sequence: H2N-LN (pY) IDLDLV (dPEG8) LST (pY) ASINFQK-amide) (SEQ ID NO: 1) (WO2016/203406A1). After incubation at 25° C. for 30-60 minutes, the alternative substrate DiFMUP (Invitrogen, cat #D6567) was added to the reaction and incubated at 25° C. for 30 minutes. The reaction was then […] by adding 5 μL of a 160 μM bpV (Phen) solution (Enzo Life Sciences cat #ALX-270-204). The fluorescence signal was monitored using a microplate reader (VARIOSKAN LUX, Thermo) with excitation and emission wavelengths of 340 nm and 450 nm, respectively. The inhibitory dose-response curve is analyzed using a standardized IC50 regression curve based on control-based normalization.

IC50: 2.62 nM
SMILES: C[C@@H]1OCC2(CCN(c3cnc(Sc4cccc(-c5cscn5)c4Cl)cn3)CC2)[C@@H]1N [US11827644, Example 33]

Reference: BindingDB's records for patent US11827644 (Suzhou Genhouse Pharmaceutical, 2023)
